Blank lines part the entries; values can stand above or below the compound they belong to.
How the values were obtained:
[1] = test system: human β-cell; assay: Human β-cell proliferation assay; format: cell-based; conditions: 5 μM, 96 hours, KI67 labeling of insulin-labeled cells, compared to vehicle-treated cells
[2] = biological target: DYRK1A (Homo sapiens, UniProt Q13627); assay: KINOMEscan qPCR-based binding assay; conditions: for fold improvement in DYRK1A binding (Kd) as compared to hit 3–1: ratio of Kd
[3] = test system: human β-cell; conditions: cited from earlier work

Structure (SMILES): O=c1[nH]c2ccc(C3=NN=C(NCc4ccc(F)cc4)SC3)cc2[nH]1 [Compound 3–5, N-(4-fluorobenzyl)-5-(benzo[d]imidazol-2(3H)-one)-6H-1,3,4-thiadiazin-2-amine]
human β-cell proliferation [1]: induced human β-cell proliferation

Structure (SMILES): O=c1[nH]c2ccc(C3=NN=C(NCc4cccnc4)SC3)cc2[nH]1 [3–13, N-(pyridine-3yl)methyl-5-(benzo[d]imidazol-2(3H)-one)-6H-1,3,4-thiadiazin-2-amine]
fold improvement in DYRK1A binding (Kd) as compared to hit 3–1 [2]: 5 fold

Structure (SMILES): COc1ccc2c(c1)[nH]c1c(C)nccc12 [Harmine, reference compound]
% DMSO Ctrl, DYRK1A [2]: < 1%
fold induction in human pancreatic β-cell proliferation [3]: 10–15 fold

fold improvement in DYRK1A binding (Kd) as compared to hit 3–1 [2]: 4 fold
Structure (SMILES): CC(NC1=NN=C(c2ccc3[nH]c(=O)[nH]c3c2)CS1)c1ccccc1 (centres unmarked) [3–16, N-(1-phenylethyl)-5-(benzo[d]imidazol-2(3H)-one)-6H-1,3,4-thiadiazin-2-amine]

Reference: PMC6396881 (European journal of medicinal chemistry, 2018)
